Assay results: PMC6686156, “Discovery of Sustainable Drugs for Neglected Tropical Diseases: Cashew Nut Shell Liquid (CNSL)‐Based Hybrids Target Mitochondrial Function and ATP Production in Trypanosoma brucei” (Chemmedchem, 2019)

Columns and labels:
[1] = system: T. b. brucei 427WT bloodstream trypomastigotes; experiment: ATP assay on T. b. brucei (luciferin-luciferase); format: cell-based, Trypanosoma brucei brucei; conditions: oligomycin 2.0 μg/mL, positive control
Protocol: (§1) ATP assay on T. b. brucei and HFF cells: Changes in cellular ATP levels due to the exposure of trypanosomes to the test compounds (0.5×EC50) were monitored using the Molecular Probes ATP Determination Kit (A22066, Invitrogen Detection Technologies), based on the luciferin–luciferase bioluminescent enzymatic reaction. Bloodstream trypomastigote cultures of T. brucei s427WT were incubated with and without test compound, and, at each predetermined incubation time, 10^7 cells of each sample were transferred into a microfuge tube and centrifuged at 2000×g for 10 min at 4 °C. The pellet was washed twice with 1 mL of 50 mM Tris⋅HCl (pH 7.4) containing 0.1 mM DTT, and then resuspended in 200 μL of the same buffer. The cells were lysed by sonication on ice (twice for 10 s separated by 30 s), using a Soniprep 150 (MSE) at 8 μm amplitude. The samples were centrifuged at 10 000×g for 10 min at 4 °C and the supernatant was collected, instantly frozen in liquid nitrogen, and stored at −80 °C. Oligomycin (2.0 μg mL^−1) was used as positive control. ATP levels were quantified using the contents of the kit following the manufacturer's instructions; 90 μL of standard reaction solution was added to each well of a 96‐well plate and the background luminescence was recorded in a FLUOstar OPTIMA fluorimeter; 10 μL of each sample was then added to each well. The plate was incubated at 28 °C for 15 min and the luminescence was measured, including a standard curve with an ATP concentration ranging from 1 nM to 1 μM to allow the calculation of the ATP concentrations in each sample. The ATP content was measured at 0, 0.5, 1, 2, 4, 8 and 12 h of incubation with test sample.

HFF cells = experiment: ATP assay on HFF cells; format: cell-based, human; conditions: 22 at 200 μM, oligomycin 2 μg/mL; 0, 4, 8 h
Protocol: as §1, with “same buffer. […] ATP levels” for “same buffer. The cells were lysed by sonication on ice (twice for 10 s separated by 30 s), using a Soniprep 150 (MSE) at 8 μm amplitude. The samples were centrifuged at 10 000×g for 10 min at 4 °C and the supernatant was collected, instantly frozen in liquid nitrogen, and stored at −80 °C. Oligomycin (2.0 μg mL^−1) was used as positive control. ATP levels”, “test sample. […]” for “test sample.”

L6 mammalian cells = system: L6 mammalian cells; set-up: method as in earlier work; conditions: versus T. b. rhodesiense STIB 900; ref 14a; cited from earlier work
[2] = system: T. b. rhodesiense (STIB 900 strain); set-up: method as in earlier work; conditions: different resazurin protocol, ref 14a, read-out: IC50 (called EC50) against T. b. rhodesiense; cited from earlier work
T. b. brucei ISMR1 = experiment: In vitro drug susceptibility assay (resazurin), dyskinetoplastic ISMR1 strain; format: cell-based, Trypanosoma brucei brucei; conditions: isometamidium-resistant line
Protocol: (§2) Organisms and culture media: Only bloodstream trypomastigotes of T. b. brucei were used throughout this study. […] Parasites were cultured in vented flasks at 37 °C and 5 % CO2 atmosphere and they were passaged every 3 days. Bloodstream forms of T. congolense savannah‐type strain IL3000 were cultured in basal MEM medium, supplemented by 10 % fresh goat serum, 14 μL of β‐mercaptoethanol, 800 μL of 200 mM glutamine solution, and 10 mL of penicillin/streptomycin solution per liter of medium (pH 7.3).48 T. congolense were cultured in six‐well plates at 34 °C and 5 % CO2.
(§3) In brief, the assays were performed in 96‐well plates with 2×10^5 cells per well for T. b. brucei or 5×10^5 cells per well for T. congolense, in their respective culture media. First, 200 μL of test compounds’ solutions (400 μM, in T. brucei or T. congolense medium as appropriate) was added to the first well of each 12‐well row, from which doubling dilutions were conducted over one row per test compound. […] Fluorescence was detected using a FLUOstar Optima (BMG Labtech, Durham, NC, USA) at wavelength of 540 nm (excitation), 590 nm (emission). EC50 values were calculated by nonlinear regression using an equation for a sigmoidal dose–response curve with variable slope using Prism 5.0 (GraphPad Software Inc., San Diego, CA, USA).

T. b. brucei B48 = experiment: microbe, parasite or virus in culture; format: cell-based, Trypanosoma brucei brucei
Protocol: as §2, §3

[3] = system: T. b. brucei 427WT bloodstream trypomastigotes; experiment: microbe, parasite or virus in culture; format: cell-based, Trypanosoma brucei brucei; conditions: Trypanosoma brucei, 72 h; bloodstream trypomastigotes; resazurin; 48 h + 24 h; n=4; read-out: EC50 T. b. b. 427WT
Protocol: as §2, §3

[4] = system: T. b. brucei aqp2/aqp3‐KO; experiment: microbe, parasite or virus in culture; format: cell-based, Trypanosoma brucei brucei
Protocol: as §2, §3

T. congolense IL3000 WT = experiment: In vitro drug susceptibility assay (resazurin), T. congolense; format: cell-based; conditions: Trypanosoma congolense, bloodstream forms, read-out: EC50 T. c. IL3000 WT
Protocol: as §2, §3

Compound | effect on ATP levels relative to 20 and 22 [1] | effect on cellular ATP levels of HFF cells (HFF cells) | selectivity index (SI) with respect to L6 mammalian cells (L6 mammalian cells) | IC50 [2] | EC50 in ISMR1 relative to 427WT tested in parallel (T. b. brucei ISMR1) | RF, resistance factor relative to WT (B48) (T. b. brucei B48; B48 versus 427WT) | EC50 (T. b. brucei B48; Trypanosoma brucei, read-out: EC50 T. b. b. B48) | EC50 [3] | EC50 ([4]; Trypanosoma brucei, read-out: EC50 T. b. b. aqp2/aq3‐KO) | RF, resistance factor relative to WT (aqp2/aqp3-KO) ([4]; aqp2/aqp3-KO versus 427WT) | EC50 (T. congolense IL3000 WT)
CC[C@H]1/C=C/C=C/C[C@@H](C)[C@H](O)[C@@](C)(O)C(=O)[C@@H](C)[C@H](O)[C@@H](C)C(=O)[C@@H](C)[C@H](O)[C@@H](C)/C=C/C(=O)O[C@@H]2[C@H](C)[C@H](CC1)O[C@]1(CC[C@H](C)[C@H](C[C@@H](C)O)O1)[C@H]2C [oligomycin, reference compound] | depressed the ATP levels even further | strong effect even at 4 h | – | – | – | – | – | – | – | – | –
O=C1C=C(Oc2ccccc2)C(=O)c2ccccc21 [Compound 4, 2‐phenoxynaphthalene‐1,4‐dione, reference compound] | – | – | 74 | 0.08 µM | did not show a significant increase in the EC50 values | 1.3 | 63 ± 0.4 µM | 48.7 ± 0.8 µM | 62.4 ± 0.8 µM | 1.3 | 108 ± 2 µM
